Data: patent publication US6376671B1, “2-sulfamoylbenzoic acid derivatives” (Kaken Pharmaceutical Co., Ltd., priority 1997, dated 2002)

What was measured:
[1] = test system: passively sensitized guinea pigs; assay: Antiasthmatic effects: immediate asthmatic response of passively sensitized guinea pigs (airway resistance); type: in vivo, guinea pig; details: 3 mg/kg i.v. 5 min before antigen inhalation (1% ovalbumin); airway resistance 5 min after inhalation
Method: The antiasthmatic effects were evaluated by the immediate asthmatic responses of passively sensitized guinea pigs. The previous day, the guinea pigs were sensitized by intravenous injections of a 10-fold diluted anti-DNP-ovalbumin guinea pig serum (guinea pig PCA titer; X1024) on the ears. The day of the test, after pre-treatment with pyrilamine (10 mg/kg i.p.), normal airway resitances were measured with a double flow plethysmograph in accordance with Pennock et al. The test substances (3 mg/kg) in DMSO were dissolved in 50% normal guinea pig serum-saline and intravenously injected from the ear vein 5 minutes before inhalation of the antigen. Immediate asthmatic responses were induced by 3 minutes of inhalational exposure to 1% ovalbumin in saline as the antigen from an ultrasonic neblizer, and the airway resistances were measured 5 minutes (4 to 6 minutes) after the inhalation. The results are expressed by the inhibition rates given by the following expression:
Inhibition rate (%)=(1−(A−B)/(C−D))×100
A: the airway resistance with a test substance after inhalation of the antigen,
B: the airway resistance with a test substance before inhalation of the antigen,
C: the airway resistance with a control after inhalation of the antigen,
D: the airway resistance with a control before inhalation of the antigen.

[2] = test system: ICR mice; assay: Acute toxicity test in ICR mice; type: in vivo, mouse
[3] = biological target: T1, TXA2 receptor (Cavia porcellus, UniProt A0A286Y4I8); assay: TXA2 antagonistic effects: U-46619-induced constriction of isolated guinea pig tracheal muscle strips; type: cell-based; details: U-46619 cumulative, 5 min pre-treatment, Van Rossum's method
T1 construct: the tracheae were excised and made into tracheal muscle strips; from tissue; host or cells: guinea pig tracheal muscle strips
T1 sequence (A0A286Y4I8 1-347): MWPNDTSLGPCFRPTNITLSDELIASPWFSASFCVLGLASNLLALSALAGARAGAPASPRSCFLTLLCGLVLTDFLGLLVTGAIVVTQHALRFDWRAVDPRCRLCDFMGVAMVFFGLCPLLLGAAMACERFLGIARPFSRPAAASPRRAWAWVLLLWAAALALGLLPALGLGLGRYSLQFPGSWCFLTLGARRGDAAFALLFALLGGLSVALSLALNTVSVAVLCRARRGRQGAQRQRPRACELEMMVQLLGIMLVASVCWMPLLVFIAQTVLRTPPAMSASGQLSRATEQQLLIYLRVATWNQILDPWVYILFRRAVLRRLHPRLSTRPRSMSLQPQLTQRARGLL
Method: Guinea pigs were bled to death, and the tracheae were excised and made into tracheal muscle strips in accordance with Takagi et al. The strips were suspended with a 1 g load in Magnus tubes filled with 2 ml Tyrode solution maintained at 37° C. under aeration with a 95% O2-5% CO2 gas mixture, and U-46619-induced constrictions were isotonically recorded.
After equilibration of the tonuses of the strips, constrictive responses to cumulative addition of 10^−10−[…] U-46619 were observed. After the constrictive responses reached equilibrium, U-46619 was added again cumlatively 5 minutes after pre-treatment with a test substance to induce constriction. The pA2 values were calculated in accordance with Van Rossum's method.

[4] = biological target: T2, LTD4 receptor (Cavia porcellus, UniProt Q2NNR5); assay: LTD4 antagonistic effects: LTD4-induced constriction of isolated guinea pig ileum preparations; type: cell-based; details: LTD4 0.05-3.5 ng/ml cumulative, 5 min pre-treatment, Van Rossum's method
T2 construct: the ilea were excised and made into ileum preparations; from tissue; host or cells: guinea pig ileum
T2 sequence (Q2NNR5 1-340): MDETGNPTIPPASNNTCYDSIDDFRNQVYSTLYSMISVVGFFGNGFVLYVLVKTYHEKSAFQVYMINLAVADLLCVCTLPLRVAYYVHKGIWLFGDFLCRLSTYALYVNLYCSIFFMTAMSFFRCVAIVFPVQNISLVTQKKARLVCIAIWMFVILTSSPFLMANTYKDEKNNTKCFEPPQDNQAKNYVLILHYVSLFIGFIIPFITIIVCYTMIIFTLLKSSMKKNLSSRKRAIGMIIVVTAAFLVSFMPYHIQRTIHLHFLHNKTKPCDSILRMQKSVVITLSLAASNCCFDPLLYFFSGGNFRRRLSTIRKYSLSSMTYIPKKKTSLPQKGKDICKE
Method: Guinea pigs were bled to death, and the ilea were excised and made into ileum preparations. The ileum preparations were suspended with a 1 g load in Magnus tubes filled with 2 ml Tyrode solution maintained at 37° C. under aeration with a 95% O2-5% CO2 gas mixture, and LTD4-induced constrictions were isotonically recorded.
After equilibration of the tonuses of the ilea, constrictive responses to cumulative addition of 0.05-3.5 ng/ml LTD4 were observed. After the constrictive responses reached equilibrium, LTD4 was added again cumulatively 5 minutes after pre-treatment with a test substance to induce constriction. The pA2 values were calculated in accordance with Van Rossum's method.

Structure (SMILES) | Antiasthmatic effect Inhibition rate (%) [1] | Acute toxicity (mortality), intravenous ([2]; intravenously 100 mg/kg) | Acute toxicity (mortality), oral ([2]; orally 1000 mg/kg) | TXA2 inhibitory effect (pA2) [3] | LTD4 inhibitory effect (pA2) [4] | Kb ([3]; read-out: TXA2 inhibitory effect (pA2) (converted)) | Kb ([4]; read-out: LTD4 inhibitory effect (pA2) (converted))
CC(C)c1csc(COc2cccc(CN(CCCCNS(=O)(=O)c3ccc(Cl)cc3)S(=O)(=O)c3ccccc3C(=O)O)c2)n1 [compound 1, 2-{N-[4-(4-chlorobenzenesulfonylamino)butyl]-N-{3-[(4-isopropyl-2-thiazolyl)methoxy]benzyl}}sulfamoylbenzoic acid] | 53.5% | none of the mice died | none of the mice died | 8.30 | 9.73 | – | –
CC(C)c1csc(COc2cccc(CN(CCCCNS(=O)(=O)c3ccc(Cl)cc3)S(=O)(=O)c3ccccc3-c3nnn[nH]3)c2)n1 [compound 91, 5-{2-{N-[4-(4-chlorobenzenesulfonylamino)butyl]-N-{3-[(4-isopropyl-2-thiazolyl)methoxy]benzyl}}sulfamoylphenyl}-1H-tetrazole] | – | – | – | – | – | 18.6 nM | 0.891 nM
